Legend:
H1 = H1 (Homo sapiens (Human), UniProt P35367); test: H1 binding assay ([3H]pyrilamine, HEK293 stable cell line membranes)
Description: Example 25. H1 and 5-HT2A Binding Assay Protocol
(§1) The testing compounds were diluted with DMSO, starting at 2 mM, with 8-points and 5-fold serial dilutions. Ketanserin and Pyrilamine were diluted with DMSO, starting at 0.2 mM, with 8-points and 5-fold serial dilution.
(§2) 1 μl of a compounds of the present disclosure and either reference compound (Table C) were transferred to assay plates. 1 μl of 0.2 mM Ketanserin or Pyrilamine was transferred to an assay plate according to the plate map for nonspecific binding (Low control: LC). 1 μl of DMSO was transferred to an assay plate according to plate map for total binding (High control: HC).
(§3) 100 μlof membrane stocks were dispensed into the plates, following the plate map. 100 of radio ligand was added. The plates were sealed and shaken at 300 rpm at room temperature for 1 hour. The Unifilter-96 GF/C filter plates were soaked with 50 of 0.3% PEI per well for at least 0.5 hour at room temperature.
(§4) When the binding assays were complete, the reaction mixture was filtered through GF/C plates using Perkin Elmer Filtermate Harvester, and then each plate was washed 4 times with cold wash buffer. The filter plates were dried for 1 hour at 50 degrees. After drying, the bottom of the filter plate wells were sealed using Perkin Elmer Unifilter-96 backing seal tape. 50 μl of Perkin Elmer Microscint 20 cocktail was added. The top of the filter plates were sealed with Perkin Elmer TopSeal-A sealing film.
(§5) ^3H trapped on filters were counted using Perkin Elmer MicroBeta2 Reader. Inhibition constants were calculated using the following equation:
(§6) [formula] The data was analyzed using Prism 5. The model used was “log(inhibitor) vs. response—Variable slope” to fit the data and calculate IC50. The IC50 was then converted to Ki using following equation: Ki=IC50/(1+L/Kd). L is the radioligand concentration in the reaction system; Kd is the affinity of radioligand to the receptor.

5-HT2A = 5-HT2A (Homo sapiens (Human), UniProt P28223); test: 5-HT2A binding assay ([3H]-Ketanserin, HEK293 stable cell line membranes)
Description: H1 and 5-HT2A Binding Assay Protocol
as §1, §2, §3, §4, §5, §6

5-HT2C = 5-HT2C (Homo sapiens (Human), UniProt P28335); test: 5-HT2C binding assay ([3H]-Mesulergine, HEK293 membranes); conditions: Table L, class symbols
Description: 5-HT2C Binding Assay Protocol
The testing compounds were diluted with DMSO, starting at 2 mM, with 8-points and 5-fold serial dilutions.
1 μL of a compound of the present disclosure the reference compound (Table J) was transferred to an assay plate. […] 1 μL of DMSO was transferred to an assay plate according to the plate map for total binding (High control: HC).
as §4, with “Unifilter-96 GF/C filter plates were soaked with 50 μL of 0.3% PEI per well for about 0.5 hours at room temperature. When” for “When”, “through the” for “through”, “GF/C filter” for “GF/C”, “and” for “and then”, “50° C.” for “50 degrees.”, “μL” for “μl”
as §5
[formula] The data was analyzed using Prism 5. The model used was “log(inhibitor) vs. response—Variable slope” to fit the data and calculate IC50. The IC50 was then converted to Ki using the following equation: Ki=IC50/(1+L/Kd), wherein L is the radioligand concentration in the reaction system; Kd is the affinity of radioligand to the receptor.

Sequence of 5-HT2C (P28335 33-458): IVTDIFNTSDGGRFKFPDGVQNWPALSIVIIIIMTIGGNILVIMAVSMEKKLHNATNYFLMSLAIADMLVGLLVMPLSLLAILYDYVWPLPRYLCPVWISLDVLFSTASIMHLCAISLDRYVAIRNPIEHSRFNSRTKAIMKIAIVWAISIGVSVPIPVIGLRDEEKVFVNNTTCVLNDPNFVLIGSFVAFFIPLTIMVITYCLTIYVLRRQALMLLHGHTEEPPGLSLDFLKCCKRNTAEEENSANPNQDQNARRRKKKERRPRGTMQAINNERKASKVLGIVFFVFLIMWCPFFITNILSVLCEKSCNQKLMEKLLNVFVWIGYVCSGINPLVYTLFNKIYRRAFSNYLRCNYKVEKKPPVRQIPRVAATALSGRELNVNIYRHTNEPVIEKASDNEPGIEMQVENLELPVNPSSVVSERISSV
Sequence of 5-HT2A (P28223 whole entry, species assumed): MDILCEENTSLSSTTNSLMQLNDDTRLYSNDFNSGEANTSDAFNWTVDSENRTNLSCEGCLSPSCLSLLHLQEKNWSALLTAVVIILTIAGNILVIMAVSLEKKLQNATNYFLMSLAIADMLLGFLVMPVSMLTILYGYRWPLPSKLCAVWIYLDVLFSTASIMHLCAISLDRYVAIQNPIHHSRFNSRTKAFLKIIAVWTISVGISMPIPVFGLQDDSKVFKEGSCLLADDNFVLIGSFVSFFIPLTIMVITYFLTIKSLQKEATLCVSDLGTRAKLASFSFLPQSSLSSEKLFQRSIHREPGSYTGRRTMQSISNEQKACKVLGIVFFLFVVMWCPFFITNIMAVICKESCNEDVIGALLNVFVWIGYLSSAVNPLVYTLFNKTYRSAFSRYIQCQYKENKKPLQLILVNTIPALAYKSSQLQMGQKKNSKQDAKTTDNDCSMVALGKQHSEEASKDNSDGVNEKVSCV
Sequence of H1 (P35367 whole entry): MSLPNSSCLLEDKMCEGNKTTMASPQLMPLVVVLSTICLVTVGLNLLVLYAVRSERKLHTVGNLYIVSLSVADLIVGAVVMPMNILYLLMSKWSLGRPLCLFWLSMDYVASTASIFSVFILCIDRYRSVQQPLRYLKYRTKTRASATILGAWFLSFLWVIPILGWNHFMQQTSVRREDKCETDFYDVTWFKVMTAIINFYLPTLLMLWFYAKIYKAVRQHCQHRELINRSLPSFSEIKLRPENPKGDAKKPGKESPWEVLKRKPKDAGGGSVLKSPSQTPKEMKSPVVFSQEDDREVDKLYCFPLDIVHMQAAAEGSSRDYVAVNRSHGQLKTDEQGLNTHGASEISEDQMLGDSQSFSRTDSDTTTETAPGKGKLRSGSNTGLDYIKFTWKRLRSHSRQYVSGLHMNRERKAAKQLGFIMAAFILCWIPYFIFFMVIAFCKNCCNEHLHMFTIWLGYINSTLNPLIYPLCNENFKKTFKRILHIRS

Row | Structure (SMILES) | Ki (H1; Table E, class symbols) [nM] | Ki (5-HT2A; Table F, class symbols) [nM] | Ki (H1; numeric values) [nM] | Ki (5-HT2A; numeric values) [nM] | Ki (5-HT2C) [nM]
1 | Cc1ccc2c(c1)Oc1cc(F)ccc1N=C2N1CCN(CC2(C(=O)O)CC2)CC1 [Compound No. 18, 1-((4-(7-fluoro-3-methyldibenzo[b,f][1,4]oxazepin-11-yl)piperazin-1-yl)methyl)cyclopropane-1-carboxylic acid] | 1 to 25 | 25 to 50 |  |  | 
2 | O=C(O)C1(CN2CCN(C3=Nc4ccccc4Cc4ccccc43)CC2)CC1 [Compound No. 12, 1-((4-(11H-dibenzo[b,e]azepin-6-yl)piperazin-1-yl)methyl)cyclopropane-1-carboxylic acid] | 1 to 25 | > 50 |  |  | 
3 | CSc1ccc2c(c1)Oc1cc(Cl)ccc1N=C2N1CCN(CC(C)(C)C(=O)O)CC1 [Compound No. 4, 3-(4-(7-chloro-3-(methylthio)dibenzo[b,f][1,4]oxazepin-11-yl)piperazin-1-yl)-2,2-dimethylpropanoic acid] | 1 to 25 | 1 to 25 |  |  | 
4 | CC(CN1CCN(C2=Nc3ccccc3Cc3ccccc32)CC1)C(=O)O (stereo not shown) [A-1, 3-(4-(11H-dibenzo[b,e]azepin-6-yl)piperazin-1-yl)-2-methylpropanoic acid, reference compound] |  |  | 104 | 1380 | 
5 | Cc1ccc2c(c1)Oc1ccc(Cl)cc1N=C2N1CCN(CC(C)(C)C(=O)O)CC1 [compound 29, 3-(4-(8-chloro-3-methyldibenzo[b,f][1,4]oxazepin-11-yl)piperazin-1-yl)-2,2-dimethylpropanoic acid] |  |  |  |  | < 100
6 | Cc1ccc2c(c1)Oc1cc(C)ccc1C(N1CCN(CC3(C(=O)O)CC3)CC1)=N2 [Compound No. 9, 1-((4-(3,7-dimethyldibenzo[b,f][1,4]oxazepin-11-yl)piperazin-1-yl)methyl)cyclopropane-1-carboxylic acid] | > 50 | 1 to 25 |  |  | 
7 | COc1ccc2c(c1)Oc1cc(F)ccc1N=C2N1CCN(CC(C)(C)C(=O)O)CC1 [Compound No. 21, 3-(4-(7-fluoro-3-methoxydibenzo[b,f][1,4]oxazepin-11-yl)piperazin-1-yl)-2,2-dimethylpropanoic acid] | > 50 | 25 to 50 |  |  | 
8 | CCc1ccc2c(c1)Oc1cc(Cl)ccc1N=C2N1CCN(CC(C)(C)C(=O)O)CC1 [Compound No. 3, 3-(4-(7-chloro-3-ethyldibenzo[b,f][1,4]oxazepin-11-yl)piperazin-1-yl)-2,2-dimethylpropanoic acid] | 25 to 50 | 1 to 25 |  |  | 
9 | COc1ccc2c(c1)C(N1CCN(CC(C)(C)C(=O)O)CC1)=Nc1cc(Cl)ccc1O2 [compound 35, 3-(4-(8-chloro-2-methoxydibenzo[b,f][1,4]oxazepin-11-yl)piperazin-1-yl)-2,2-dimethylpropanoic acid] |  |  |  |  | 100 to 500
10 | Cc1ccc2c(c1)Oc1cc(Cl)ccc1N=C2N1CCN(CC(C)(C)C(=O)O)CC1 [Compound No. 1, 3-(4-(7-chloro-3-methyldibenzo[b,f][1,4]oxazepin-11-yl)piperazin-1-yl)-2,2-dimethylpropanoic acid] | 1 to 25 | 1 to 25 |  |  | > 500
11 | Cc1ccc2c(c1)Oc1cc(Cl)ccc1N=C2N1CCN(CC2(C(=O)O)CC2)CC1 [Compound No. 13, 1-((4-(7-chloro-3-methyldibenzo[b,f][1,4]oxazepin-11-yl)piperazin-1-yl)methyl)cyclopropane-1-carboxylic acid] | 25 to 50 | 1 to 25 |  |  | 
12 | CCc1ccc2c(c1)Oc1cc(C)ccc1N=C2N1CCN(CC2(C(=O)O)CC2)CC1 [Compound No. 14, 1-((4-(3-ethyl-7-methyldibenzo[b,f][1,4]oxazepin-11-yl)piperazin-1-yl)methyl)cyclopropane-1-carboxylic acid] | > 50 | 1 to 25 |  |  | 
13 | Cc1ccc2c(c1)Cc1ccccc1C(N1CCN(CC(C)(C)C(=O)O)CC1)=N2 [Compound No. 38, 2,2-dimethyl-3-(4-(2-methyl-11H-dibenzo[b,e]azepin-6-yl)piperazin-1-yl)propanoic acid] | > 50 | > 50 |  |  | < 100
14 | COc1ccc2c(c1)Oc1cc(Cl)ccc1N=C2N1CCN(CC(C)(C)C(=O)O)CC1 [Compound No. 20, 3-(4-(7-chloro-3-methoxydibenzo[b,f][1,4]oxazepin-11-yl)piperazin-1-yl)-2,2-dimethylpropanoic acid] | > 50 | 25 to 50 |  |  | 
15 | O=C(O)C1(CN2CCN(C3=Nc4ccc(F)cc4Oc4cc(F)ccc43)CC2)CC1 [Compound No. 10, 1-((4-(3,7-difluorodibenzo[b,f][1,4]oxazepin-11-yl)piperazin-1-yl)methyl)cyclopropane-1-carboxylic acid] | 1 to 25 | 1 to 25 |  |  | 
16 | Cc1ccc2c(c1)Oc1cc(F)ccc1C(N1CCN(CC3(C(=O)O)CC3)CC1)=N2 [Compound No. 19, 1-((4-(3-fluoro-7-methyldibenzo[b,f][1,4]oxazepin-11-yl)piperazin-1-yl)methyl)cyclopropane-1-carboxylic acid] | 25 to 50 | 1 to 25 |  |  | 
17 | CC(C)c1ccc2c(c1)Oc1cc(Cl)ccc1N=C2N1CCN(CC(C)(C)C(=O)O)CC1 [Compound No. 2, 3-(4-(7-chloro-3-isopropyldibenzo[b,f][1,4]oxazepin-11-yl)piperazin-1-yl)-2,2-dimethylpropanoic acid] | 25 to 50 | 1 to 25 |  |  | 
18 | Cc1ccc2c(c1)N=C(N1CCN(CC(C)(C)C(=O)O)CC1)c1ccc(C(F)F)cc1O2 [compound 33, 3-(4-(3-(difluoromethyl)-8-methyldibenzo[b,f][1,4]oxazepin-11-yl)piperazin-1-yl)-2,2-dimethylpropanoic acid] |  |  |  |  | < 100
19 | Cc1ccc2c(c1)Oc1ccc(F)cc1N=C2N1CCN(CC(C)(C)C(=O)O)CC1 [compound 28, 3-(4-(8-fluoro-3-methyldibenzo[b,f][1,4]oxazepin-11-yl)piperazin-1-yl)-2,2-dimethylpropanoic acid] |  |  |  |  | 100 to 500
20 | CC(C)(CN1CCN(C2=Nc3ccccc3Oc3cccc(F)c32)CC1)C(=O)O [Compound No. 39, 3-(4-(1-fluorodibenzo[b,f][1,4]oxazepin-11-yl)piperazin-1-yl)-2,2-dimethylpropanoic acid] | > 50 | > 50 |  |  | < 100
21 | Cc1ccc2c(c1)Oc1cc(C(F)F)ccc1N=C2N1CCN(CC(C)(C)C(=O)O)CC1 [Compound No. 16, 3-(4-(7-(difluoromethyl)-3-methyldibenzo[b,f][1,4]oxazepin-11-yl)piperazin-1-yl)-2,2-dimethylpropanoic acid] | > 50 | > 50 |  |  | 
22 | CC(C)(CN1CCN(C2=Nc3cc(F)ccc3Oc3cc(F)ccc32)CC1)C(=O)O [compound 31, 3-(4-(3,8-difluorodibenzo[b,f][1,4]oxazepin-11-yl)piperazin-1-yl)-2,2-dimethylpropanoic acid] |  |  |  |  | < 100
23 | Cc1ccc2c(c1)Oc1cc(F)ccc1C(N1CCN(CC(C)(C)C(=O)O)CC1)=N2 [Compound No. 17, 3-(4-(3-fluoro-7-methyldibenzo[b,f][1,4]oxazepin-11-yl)piperazin-1-yl)-2,2-dimethylpropanoic acid] | 1 to 25 | 1 to 25 |  |  | 
24 | Cc1ccc2c(c1)C(N1CCN(CC(C)(C)C(=O)O)CC1)=Nc1cc(Cl)ccc1O2 [compound 34, 3-(4-(8-chloro-2-methyldibenzo[b,f][1,4]oxazepin-11-yl)piperazin-1-yl)-2,2-dimethylpropanoic acid] |  |  |  |  | < 100
25 | CCCc1ccc2c(c1)Oc1cc(Cl)ccc1N=C2N1CCN(CC(C)(C)C(=O)O)CC1 [Compound No. 5, 3-(4-(7-chloro-3-propyldibenzo[b,f][1,4]oxazepin-11-yl)piperazin-1-yl)-2,2-dimethylpropanoic acid] | 25 to 50 | 1 to 25 |  |  | 
26 | CC(C)(CN1CCN(C2=Nc3ccc(F)cc3Oc3cc(F)ccc32)CC1)C(=O)O [Compound No. 11, 3-(4-(3,7-difluorodibenzo[b,f][1,4]oxazepin-11-yl)piperazin-1-yl)-2,2-dimethylpropanoic acid] | > 50 | 1 to 25 |  |  | 

Reference: patent publication US11046651B2, “Piperazine substituted azapine derivatives and uses thereof” (Alairion, Inc., priority 2019, dated 2021)
